Assay [1] relates to recombinant guanylate cyclase reporter cell line. The assay is described as follows: Effect on a recombinant guanylate cyclase reporter cell line. In kind it is cell-based. The protocol:
B-2. Effect on a Recombinant Guanylate Cyclase Reporter Cell Line
The cellular activity of the compounds according to the invention is determined using a recombinant guanylate cyclase reporter cell line, as described in F. Wunder et al., Anal. Biochem. 339, 104-112 (2005).

A further assay has as its system aorta rings. Briefly: Vasorelaxant effect in vitro (phenylephrine-contracted aorta rings). To be noted: Oryctolagus cuniculus, rabbit aorta rings, organ bath, phenylephrine contraction; read-out: IC50 (concentration needed to reduce the phenylephrine contraction by 50%). The essentials:
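Rabbit aortic rings 1.5 mm wide were held under tension in carbogen-gassed Krebs-Henseleit at 37° C and contracted with cumulative phenylephrine. Compound was added at rising doses in successive runs (0.1% DMSO), and each contraction was compared with the preceding run. IC50 is the concentration halving the control contraction.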

The target in assay [2] is human phosphodiesterase 5 (PDE 5) (Homo sapiens (Human), UniProt O76074). The assay is described as follows: Inhibition of human phosphodiesterase 5 (PDE 5), SPA assay. In kind it is biochemical. To be noted: PDE 5 preparation from human platelets, [8-3H] cGMP substrate. Summed up: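 Enzyme partially purified from human platelets by Mono Q chromatography; [8-3H]cGMP substrate (0.025 μCi per well), enzyme diluted to keep conversion below 70%. Compounds 4 μM to 0.0018 μM final, 60 min at room temperature in Tris pH 7.5/MgCl2/EDTA; yttrium SPA bead read-out; IC50 from concentration–inhibition plot.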

Turning to `CC1(COCc2ccccc2)C(=O)Nc2nc(-c3nn(Cc4ccccc4F)c4ncc(F)cc34)nnc21` (racemic) [Example 6, 7-[(Benzyloxy)methyl]-3-[5-fluoro-1-(2-fluorobenzyl)-1H-pyrazolo[3,4-b]pyridin-3-yl]-7-methyl-5,7-dihydro-6H-pyrrolo[2,3-e][1,2,4]triazin-6-one (racemate)], in assay [1], the “MEC (minimum effective concentration)” value was 100 nM. For the same compound, the IC50 in the assay on aorta rings stood at 246 nM; in assay [2], 1100 nM.

Take `CC(C)n1ccc(-c2nc(-c3nn(Cc4ccccc4F)c4ncccc34)nc3c2C(C)(C)C(=O)N3)n1` [Example 39, 2-[1-(2-Fluorobenzyl)-1H-pyrazolo[3,4-b]pyridin-3-yl]-4-(1-isopropyl-1H-pyrazol-3-yl)-5,5-dimethyl-5,7-dihydro-6H-pyrrolo[2,3-d]pyrimidin-6-one]: the “MEC (minimum effective concentration)” value in assay [1] was determined as 30 nM. Also, the values for the IC50 (with aorta rings; in assay [2]) were 225 nM and 240 nM, respectively.

For the compound `NC1(C(F)(F)F)C(=O)Nc2nc(-c3nn(Cc4ccccc4F)c4ncccc34)ncc21` (stereo not drawn) [Example 1, 5-Amino-2-[1-(2-fluorobenzyl)-1H-pyrazolo[3,4-b]pyridin-3-yl]-5-(trifluoromethyl)-5,7-dihydro-6H-pyrrolo[2,3-d]pyrimidin-6-one], the “MEC (minimum effective concentration)” value in assay [1] was 30 nM. For the same compound, the IC50 with aorta rings was 37 nM; in assay [2], 1200 nM.

`CCOCCC1(C)C(=O)Nc2nc(-c3nn(Cc4ccccc4F)c4ncc(F)cc34)nnc21` (stereo not drawn) [Example 13, 7-(2-Ethoxyethyl)-3-[5-fluoro-1-(2-fluorobenzyl)-1H-pyrazolo[3,4-b]pyridin-3-yl]-7-methyl-5,7-dihydro-6H-pyrrolo[2,3-e][1,2,4]triazin-6-one]: the “MEC (minimum effective concentration)” value in assay [1] came to 100 nM. For the same compound, the values for the IC50 (with aorta rings; in assay [2]) were 1590 nM and 660 nM, respectively.

Turning to `CCOc1ccc(-c2nc(-c3nn(Cc4ccccc4F)c4ncccc34)nc3c2C(C)(C)C(=O)N3)cn1` [Example 14, 4-(6-Ethoxypyridin-3-yl)-2-[1-(2-fluorobenzyl)-1H-pyrazolo[3,4-b]pyridin-3-yl]-5,5-dimethyl-5,7-dihydro-6H-pyrrolo[2,3-d]pyrimidin-6-one], in assay [1], the “MEC (minimum effective concentration)” value was 300 nM. For the same compound, the values for the IC50 (in the assay on aorta rings; in assay [2]) were 420 nM and 2000 nM, respectively.

With `CC1(C)C(=O)Nc2nc(-c3nn(Cc4ccccc4F)c4ncccc34)nc(CCC(F)(F)F)c21` [Example 31, 2-[1-(2-Fluorobenzyl)-1H-pyrazolo[3,4-b]pyridin-3-yl]-5,5-dimethyl-4-(3,3,3-trifluoropropyl)-5,7-dihydro-6H-pyrrolo[2,3-d]pyrimidin-6-one], the “MEC (minimum effective concentration)” value in assay [1] is 100 nM. The IC50 in the assay on aorta rings was determined as 309 nM; in assay [2] it was 260 nM.

On to `CC1(C)C(=O)Nc2nc(-c3nn(Cc4ccccc4F)c4ncccc34)nc(/C=C\C3CC3)c21` [Example 18, 4-[(Z)-2-Cyclopropylvinyl]-2-[1-(2-fluorobenzyl)-1H-pyrazolo[3,4-b]pyridin-3-yl]-5,5-dimethyl-5,7-dihydro-6H-pyrrolo[2,3-d]pyrimidin-6-one], for which, in assay [1], the “MEC (minimum effective concentration)” value is 100 nM. Also, the IC50 with aorta rings was determined as 836 nM; in assay [2], 150 nM.

As to `COc1cccc(Cn2nc(-c3nnc4c(n3)NC(=O)C4(C)C)c3cc(F)cnc32)c1F` [Example 11, 3-[5-Fluoro-1-(2-fluoro-3-methoxybenzyl)-1H-pyrazolo[3,4-b]pyridin-3-yl]-7,7-dimethyl-5,7-dihydro-6H-pyrrolo[2,3-e][1,2,4]triazin-6-one], the “MEC (minimum effective concentration)” value in assay [1] was found to be 300 nM. The figures for the IC50 (with aorta rings; in assay [2]) were 237 nM and 250 nM, respectively.

The values above are taken from patent publication US9505786B2, “Substituted annulated triazines and use thereof” (BAYER INTELLECTUAL PROPERTY GMBH, priority 2012, dated 2016).
